According to ChEMBL document CHEMBL3751752, “Total synthesis of a biotinylated rocaglate: Selective targeting of the translation factors eIF4AI/II” (Bioorg Med Chem Lett, 2016):
Activity calls are given as the source filed them. The rule behind the calls is not given here.

What was measured:
[1] = molecular target: T1, Prohibitin 1 (Mus musculus) (UniProt P67778); test: Binding affinity to prohibitin in mouse embryonic fibroblasts by Western blot method
T1 sequence (whole entry): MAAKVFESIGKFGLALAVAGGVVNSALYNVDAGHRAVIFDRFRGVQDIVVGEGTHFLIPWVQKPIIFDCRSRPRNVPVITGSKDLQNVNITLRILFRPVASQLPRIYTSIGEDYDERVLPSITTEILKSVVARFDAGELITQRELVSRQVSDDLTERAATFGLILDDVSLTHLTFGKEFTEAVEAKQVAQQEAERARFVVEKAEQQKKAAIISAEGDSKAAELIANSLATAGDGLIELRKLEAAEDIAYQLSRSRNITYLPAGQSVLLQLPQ

[2] = molecular target: Eukaryotic initiation factor 4A-II (Mus musculus) (UniProt P10630); test: Binding affinity to eIF4A2 in mouse embryonic fibroblasts by Western blot method
Eukaryotic initiation factor 4A-II (Mus musculus), sequence (P10630 whole entry): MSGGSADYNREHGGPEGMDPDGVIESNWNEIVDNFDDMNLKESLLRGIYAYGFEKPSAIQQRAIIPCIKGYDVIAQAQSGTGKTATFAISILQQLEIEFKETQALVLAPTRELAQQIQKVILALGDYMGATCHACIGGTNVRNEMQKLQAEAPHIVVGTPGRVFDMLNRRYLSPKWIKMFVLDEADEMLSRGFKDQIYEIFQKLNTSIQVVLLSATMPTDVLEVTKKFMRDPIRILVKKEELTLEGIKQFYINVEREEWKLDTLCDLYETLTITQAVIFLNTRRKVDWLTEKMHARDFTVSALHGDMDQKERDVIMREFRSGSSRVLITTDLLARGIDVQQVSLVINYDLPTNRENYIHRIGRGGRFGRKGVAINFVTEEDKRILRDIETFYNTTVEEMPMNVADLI

[3] = molecular target: Eukaryotic initiation factor 4A-I (Mus musculus) (UniProt P60843); test: Binding affinity to eIF4A1 in mouse embryonic fibroblasts by Western blot method
Eukaryotic initiation factor 4A-I (Mus musculus), sequence (P60843 whole entry): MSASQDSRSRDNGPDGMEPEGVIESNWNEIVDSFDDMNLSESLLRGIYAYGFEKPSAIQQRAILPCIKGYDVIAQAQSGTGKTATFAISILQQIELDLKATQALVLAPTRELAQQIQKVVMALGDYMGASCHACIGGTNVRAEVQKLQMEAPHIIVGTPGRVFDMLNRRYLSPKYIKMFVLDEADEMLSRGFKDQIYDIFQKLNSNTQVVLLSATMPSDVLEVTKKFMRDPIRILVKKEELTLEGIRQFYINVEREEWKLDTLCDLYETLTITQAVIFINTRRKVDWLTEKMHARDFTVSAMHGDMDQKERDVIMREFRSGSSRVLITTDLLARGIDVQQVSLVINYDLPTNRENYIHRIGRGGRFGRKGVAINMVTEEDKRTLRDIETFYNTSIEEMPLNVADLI

[4] = molecular target: Eukaryotic translation initiation factor 4E (Mus musculus) (UniProt P63073); test: Binding affinity to eIF4E in mouse embryonic fibroblasts by Western blot method
Eukaryotic translation initiation factor 4E (Mus musculus), sequence (P63073 whole entry): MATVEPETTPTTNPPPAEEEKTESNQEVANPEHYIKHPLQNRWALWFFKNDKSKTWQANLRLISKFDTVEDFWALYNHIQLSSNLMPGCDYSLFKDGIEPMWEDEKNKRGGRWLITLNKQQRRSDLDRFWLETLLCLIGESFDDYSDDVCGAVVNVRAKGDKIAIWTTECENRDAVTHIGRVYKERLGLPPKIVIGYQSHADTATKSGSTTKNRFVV

[5] = molecular target: Eukaryotic initiation factor 4A-II (Mus musculus) (UniProt P10630); test: Binding affinity to eIF4A2 in mouse embryonic fibroblasts at 20 uM by streptavidin pulldown assay
[6] = molecular target: Eukaryotic initiation factor 4A-I (Homo sapiens) (UniProt P60842); test: Inhibition of e1F4A1 (unknown origin) in rabbit reticulocyte assessed as capped-dependent translation incubated for 1 hr by dual glo luciferase assay
Eukaryotic initiation factor 4A-I (Homo sapiens), sequence (P60842 whole entry): as the sequence (P60843 whole entry) above

[7] = molecular target: Eukaryotic initiation factor 4A-III (Mus musculus) (UniProt Q91VC3); test: Binding affinity to eIF4A3 in mouse embryonic fibroblasts by Western blot method
Eukaryotic initiation factor 4A-III (Mus musculus), sequence (Q91VC3 whole entry): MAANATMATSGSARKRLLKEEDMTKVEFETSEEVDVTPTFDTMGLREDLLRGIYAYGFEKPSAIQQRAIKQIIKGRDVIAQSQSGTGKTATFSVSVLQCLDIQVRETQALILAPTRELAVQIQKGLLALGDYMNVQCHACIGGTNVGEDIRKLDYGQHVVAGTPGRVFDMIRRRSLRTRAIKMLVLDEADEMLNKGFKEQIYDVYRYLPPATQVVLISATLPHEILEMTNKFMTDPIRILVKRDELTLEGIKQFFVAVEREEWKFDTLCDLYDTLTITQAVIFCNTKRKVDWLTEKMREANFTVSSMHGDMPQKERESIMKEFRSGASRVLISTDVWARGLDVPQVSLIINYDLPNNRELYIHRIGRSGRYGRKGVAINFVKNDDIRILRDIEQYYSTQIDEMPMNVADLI

[8] = molecular target: ATP-dependent RNA helicase DDX3X (Mus musculus) (UniProt Q62167); test: Binding affinity to DDX3 in mouse embryonic fibroblasts by Western blot method
ATP-dependent RNA helicase DDX3X (Mus musculus), sequence (Q62167 whole entry): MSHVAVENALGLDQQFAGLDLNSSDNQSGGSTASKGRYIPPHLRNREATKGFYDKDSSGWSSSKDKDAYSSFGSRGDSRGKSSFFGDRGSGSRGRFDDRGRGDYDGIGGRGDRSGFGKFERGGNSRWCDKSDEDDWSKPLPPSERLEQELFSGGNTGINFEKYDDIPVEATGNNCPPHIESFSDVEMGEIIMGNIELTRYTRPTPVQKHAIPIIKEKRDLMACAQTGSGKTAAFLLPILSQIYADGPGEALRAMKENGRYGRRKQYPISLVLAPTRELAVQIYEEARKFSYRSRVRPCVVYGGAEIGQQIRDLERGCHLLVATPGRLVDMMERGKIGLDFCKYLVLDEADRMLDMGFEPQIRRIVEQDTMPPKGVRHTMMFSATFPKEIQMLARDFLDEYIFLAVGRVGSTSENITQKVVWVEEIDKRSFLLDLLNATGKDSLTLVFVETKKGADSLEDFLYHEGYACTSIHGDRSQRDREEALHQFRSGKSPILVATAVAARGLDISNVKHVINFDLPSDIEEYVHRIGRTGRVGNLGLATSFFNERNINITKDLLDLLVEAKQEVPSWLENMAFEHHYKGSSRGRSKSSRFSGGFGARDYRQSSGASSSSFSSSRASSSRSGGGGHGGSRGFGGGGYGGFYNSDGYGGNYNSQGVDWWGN

[9] = molecular target: Eukaryotic initiation factor 4A-I (Mus musculus) (UniProt P60843); test: Binding affinity to eIF4A1 in mouse embryonic fibroblasts at 20 uM by streptavidin pulldown assay

How did the Activity [1] turn out when `COc1ccc([C@@]23Oc4cc(OC)cc(OC)c4[C@]2(O)[C@H](O)[C@H](C(=O)NCc2cn(CCCOCCOCCOCCCNC(=O)CCCC[C@@H]4SC[C@@H]5NC(=O)N[C@@H]54)nn2)[C@H]3c2ccccc2)cc1` was run?
Its Activity is “inactive”.

What about the Activity [2] of the same compound?
The Activity was “Active”.

And the Activity [3]?
The Activity was “Active”.

And the Activity [4]?
The Activity was “inactive”.

And the Activity [5]?
The Activity was “Active”.

And the inhibition [6]?
Its inhibition is “Active”.

What about the Activity [7] of the same compound?
Its Activity is “inactive”.

And the Activity [8]?
The Activity was “inactive”.

What about the Activity [9] of the same compound?
Its Activity is “Active”.

Which inhibition [6] does the source give for `C#CCNC(=O)[C@H]1[C@@H](O)[C@@]2(O)c3c(OC)cc(OC)cc3O[C@@]2(c2ccc(OC)cc2)[C@@H]1c1ccccc1` here?
Its inhibition is “Active”.

How did the Activity [1] turn out when `COc1ccc([C@@]23Oc4cc(O[C@@H]5O[C@@H]([C@@H](O)CO)CO[C@H]5OC)cc(OC)c4[C@]2(O)[C@H](O)[C@H](C(=O)NCc2cn(CCCOCCOCCOCCCNC(=O)CCCC[C@@H]4SC[C@@H]5NC(=O)N[C@@H]54)nn2)[C@H]3c2ccccc2)cc1` was run?
The Activity was “inactive”.

And the Activity [2]?
The Activity was “Active”.

And the Activity [3]?
Its Activity is “Active”.

What about the Activity [4] of the same compound?
The Activity was “inactive”.

And the Activity [5]?
The Activity was “Active”.

And the Activity [7]?
Its Activity is “inactive”.

What about the Activity [8] of the same compound?
The Activity was “inactive”.

And the Activity [9]?
Its Activity is “Active”.

Which Activity [5] does the source give for `COc1ccc([C@@]23Oc4cc(OC)cc(OC)c4[C@]2(O)[C@H](O)[C@H](C(=O)N(C)C)[C@H]3c2ccccc2)cc1` here?
The Activity was “Active”.

What about the Activity [9] of the same compound?
Its Activity is “Active”.

Which Activity [5] does the source give for `O=C(O)CCCC[C@@H]1SC[C@@H]2NC(=O)N[C@@H]21` here?
Its Activity is “inactive”.

And the Activity [9]?
Its Activity is “inactive”.

How did the Activity [5] turn out when `COC(=O)[C@H]1[C@@H](O)[C@@]2(O)c3c(OC)cc(O[C@@H]4O[C@@H]([C@@H](O)CO)CO[C@H]4OC)cc3O[C@@]2(c2ccc(OC)cc2)[C@@H]1c1ccccc1` was run?
Its Activity is “Active”.

And the inhibition [6]?
Its inhibition is “Active”.

What about the Activity [9] of the same compound?
Its Activity is “Active”.

With `COc1ccc([C@@]23Oc4cc(OC)cc(OC)c4[C@]2(O)[C@H](O)[C@H](C(=O)O)[C@H]3c2ccccc2)cc1` as the compound, how does the inhibition [6] read?
Its inhibition is “Active”.

Which results are given for `COC(=O)[C@H]1[C@@H](O)[C@@]2(O)c3c(OC)cc(OC)cc3O[C@@]2(c2ccc(OC)cc2)[C@@H]1c1ccccc1`?
Activity [5]: Active; inhibition [6]: Active; Activity [9]: Active
